Literature values as cited in patent US8063249B1, “Substituted triphenyl butenes” (Olema Pharmaceuticals, Inc., priority 2008, dated 2011).
Where two headings read alike, the source gives them in different places.

What was measured:
UGT 1A8 = biological target: T1, UGT 1A8 (Homo sapiens, UniProt Q9HAW9)
T1 sequence (Q9HAW9 26-530): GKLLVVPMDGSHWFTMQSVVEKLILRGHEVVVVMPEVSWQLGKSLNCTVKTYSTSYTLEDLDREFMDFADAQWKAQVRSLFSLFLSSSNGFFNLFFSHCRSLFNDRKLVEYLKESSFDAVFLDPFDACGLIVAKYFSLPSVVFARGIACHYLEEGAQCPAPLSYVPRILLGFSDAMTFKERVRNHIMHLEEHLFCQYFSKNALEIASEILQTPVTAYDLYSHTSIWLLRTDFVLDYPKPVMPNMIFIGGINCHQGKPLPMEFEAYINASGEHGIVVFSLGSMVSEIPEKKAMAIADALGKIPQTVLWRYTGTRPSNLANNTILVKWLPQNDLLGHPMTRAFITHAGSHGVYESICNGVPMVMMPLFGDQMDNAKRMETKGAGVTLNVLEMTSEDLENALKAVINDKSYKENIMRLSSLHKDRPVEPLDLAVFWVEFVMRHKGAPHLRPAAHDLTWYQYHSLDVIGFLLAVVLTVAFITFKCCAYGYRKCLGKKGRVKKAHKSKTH

UGT 1A10 = biological target: T2, UGT 1A10 (Homo sapiens, UniProt Q9HAW8)
T2 sequence (Q9HAW8 26-530): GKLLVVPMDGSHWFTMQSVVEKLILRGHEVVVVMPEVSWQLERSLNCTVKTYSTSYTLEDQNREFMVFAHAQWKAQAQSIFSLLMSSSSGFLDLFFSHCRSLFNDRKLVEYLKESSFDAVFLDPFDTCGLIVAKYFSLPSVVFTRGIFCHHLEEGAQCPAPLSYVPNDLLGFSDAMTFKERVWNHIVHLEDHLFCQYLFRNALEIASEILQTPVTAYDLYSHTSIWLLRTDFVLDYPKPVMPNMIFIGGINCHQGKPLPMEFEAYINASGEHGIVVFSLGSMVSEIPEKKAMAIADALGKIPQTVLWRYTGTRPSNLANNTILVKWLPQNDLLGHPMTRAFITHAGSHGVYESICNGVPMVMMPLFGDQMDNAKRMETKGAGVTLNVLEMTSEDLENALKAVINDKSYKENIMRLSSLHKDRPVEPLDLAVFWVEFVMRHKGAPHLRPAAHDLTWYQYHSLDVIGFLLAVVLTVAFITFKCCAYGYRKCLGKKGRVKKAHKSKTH

ER = details: for binding constants for the ER compared with estradiol: relative to estradiol, from Jordan, Steroids 2007; for binding to the ER: statement in words, from the literature
[1] = hydroxy group, from Sun et al. 2007

substrate for O-glucuronidation by UGT 1A8 (UGT 1A8)	substrate for O-glucuronidation by UGT 1A10 (UGT 1A10)	binding constants for the ER compared with estradiol (ER)	binding to the ER (ER)	substrate for O-glucuronidation by UGT 1A8 (UGT 1A8; [1])	substrate for O-glucuronidation by UGT 1A10 (UGT 1A10; [1])	Compound
substrates for O-glucuronidation	substrates for O-glucuronidation	roughly equal to that of estradiol	bind with high affinity	–	–	4-hydroxy tamoxifen
–	–	–	binds very poorly	–	–	CC/C(=C(\c1ccccc1)c1ccc(OCCN(C)C)cc1)c1ccccc1 [Tamoxifen, tamoxifen]
–	–	roughly equal to that of estradiol	bind with high affinity	substrates for O-glucuronidation	substrates for O-glucuronidation	CC/C(=C(\c1ccc(O)cc1)c1ccc(OCCNC)cc1)c1ccccc1 [endoxifen, 4-hydroxy N-desmethyl tamoxifen]
–	–	–	can no longer bind	–	–	CCC(=C(c1ccc(OCCNC)cc1)c1ccc(OC2OC(C(=O)O)C(O)C(O)C2O)cc1)c1ccccc1 (stereo not shown) [glucuronated endoxifen]
